The record followed here is PubChem BioAssay (NCI).

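Step 1: Grow cells in 96-well plates. Step 2: Expose to compound for 48 hours at 5 concentrations. Step 3: Interpolate endpoints linearly; if unreached, use highest concentration. TGI is the concentration that stops growth completely.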

Some test systems named below: 786-0 renal; OVCAR-5 ovarian; SW-620 colon; SK-MEL-5 melanoma; M14 melanoma; HCC-2998 colon; KM12 colon; SNB-19 CNS; NCI-H23 lung; TK-10 renal; IGROV1 ovarian; OVCAR-8 ovarian; UACC-257 melanoma; SF-295 CNS; RXF 393 renal; HS 578T breast; UACC-62 melanoma.
Holding throughout (test): inhibition of tumour cell growth, NCI panel, 48 h

`C[N+](C)(C)CC(=O)N/N=C(\C(=O)NC1=C(Cl)C(=O)c2ccccc2C1=O)C(C#N)c1nc(-c2ccc([N+](=O)[O-])cc2)cs1` (configuration not stated): the TGI came to 29.1 µM in the test on 786-0 renal; 26.3 µM with OVCAR-5 ovarian; 31.6 µM in the test on SW-620 colon; 2700 nM with SK-MEL-5 melanoma; 8.65 µM in the test with M14 melanoma; 30.5 µM in the test with HCC-2998 colon. Besides, the TGI in the test on KM12 colon came out at 63.7 µM; in the test on SNB-19 CNS it was 39.8 µM; in the test on NCI-H23 lung, 11.4 µM; in the test with TK-10 renal, 74.6 µM; in the test on IGROV1 ovarian, 18.4 µM; with OVCAR-8 ovarian, 47.6 µM. In addition, the TGI in the test with UACC-257 melanoma amounted to 9.11 µM; in the test on SF-295 CNS, 18.9 µM; with RXF 393 renal, 30.2 µM; in the test with HS 578T breast, 40.6 µM; in the test with UACC-62 melanoma, 9.27 µM.
